One may read the melting point as the temperature, or range, at which the solid turns liquid. In general, EC50 refers to the midpoint of the concentration-response curve.

Consider 52 compounds from patent US8129527B2, “Analogs of dehydrophenylahistins and their therapeutic use” (Nereus Pharmacuticals, Inc., priority 2006, dated 2012).

Molecules are shown by their SMILES. Read-outs that look alike come from different tables or passages of the source.

For data set [1], the system named is HT-29 human colorectal carcinoma cells. The data set can be described thus: Cell growth inhibition assay, resazurin (Table 3.2). The data set is classed as cell-based. As for the experimental part:
The cytotoxic effects of various derivatives of dehydrophenylahistin against HT-29 human colorectal carcinoma cells were determined.
HT-29 cells (ATCC; HTB-38) were maintained in ATCC recommended culture media and cultured in an incubator at 37° C. in 5% CO2 and 95% humidified air.
For cell growth inhibition assays, HT-29 cells were seeded at 5×10^3 cells/well in 90 μl complete media into a Corning 3904 black-walled, clear-bottom tissue culture plates and the plates were incubated overnight to allow cells to establish and enter log phase growth. 20 mM stock solutions of compounds were prepared in 100% DMSO and stored at −80° C. 10× concentrated serial dilutions of the compounds were prepared in culture medium for final concentrations ranging from 20 μM to […]. Ten μl volumes of the 10× serial dilutions were added to the test wells in triplicate and the plates returned to the incubator for 48 hours. The final concentration of DMSO was 0.25% in all samples.
Following 48 hours of drug exposure, 10 μl of 0.2 mg/ml resazurin (obtained from Sigma-Aldrich Chemical Co.) in Mg^2+, Ca^2+ free phosphate buffered saline was added to each well and the plates were returned to the incubator for 3-4 hours. […] Resazurin dye in medium without cells was used to determine the background, which was subtracted from the data for all experimental wells.
(Resazurin is reduced to fluorescent resorufin, in cell work by metabolically active cells.)

[2] abbreviates: Table 3.2, HT-29 cells, read-out: EC50 (M) Mean.

Take `CC(C)(C)c1ocnc1/C=c1\[nH]c(=O)/c(=C/c2cccc3ccccc23)[nH]c1=O`: the melting point was in the range of 168 to 170 °C. On the same count and under the same terms, next, `Cc1cccc(/C=c2\[nH]c(=O)/c(=C/c3ncoc3C(C)(C)C)[nH]c2=O)c1`: 151 to 153 °C; `CC(C)(C)c1ocnc1/C=c1\[nH]c(=O)/c(=C/c2cccc(Cl)c2Cl)[nH]c1=O`: 198 to 200 °C.

Turning to `CC(C)(C)c1ocnc1/C=c1\[nH]c(=O)/c(=C/c2ccccn2)[nH]c1=O`, the melting point was in the range of 230 to 232 °C. The same measure, in the same setting: the result for `CC(C)(C)c1ocnc1/C=c1\[nH]c(=O)/c(=C/c2cccc([N+](=O)[O-])c2)[nH]c1=O` reads 225 to 227 °C.

Turning to `CC(C)(C)c1ocnc1/C=c1\[nH]c(=O)/c(=C/c2ccc(Cl)o2)[nH]c1=O`, the melting point lay within 214 to 216 °C. For the compound `C=Cc1cccc(/C=c2\[nH]c(=O)/c(=C/c3ncoc3C(C)(C)C)[nH]c2=O)c1`, the melting point was in the range of 150 to 152 °C. For `Cc1cccc(/C=c2\[nH]c(=O)/c(=C/c3ncoc3C(C)(C)C)[nH]c2=O)c1C`, the melting point lay in the range of 167 to 169 °C. On the same count and under the same terms, the result for `CC(C)(C)c1ocnc1/C=c1\[nH]c(=O)/c(=C/c2cccc(C(F)(F)F)c2)[nH]c1=O` reads 243 to 245 °C; that for `CC(C)(C)c1ocnc1/C=c1\[nH]c(=O)/c(=C/c2ccnc3ccccc23)[nH]c1=O`, 106 to 108 °C; that for `CC(C)(C)c1ocnc1/C=c1\[nH]c(=O)/c(=C/c2cccc(Oc3ccccc3)c2)[nH]c1=O`, 171 to 173 °C.

`CC(C)(C)c1ocnc1/C=c1\[nH]c(=O)/c(=C/c2cc3ccccc3n2S(=O)(=O)c2ccccc2)[nH]c1=O` had a melting point of 145 to 147 °C.

With `CC(C)(C)c1ocnc1/C=c1\[nH]c(=O)/c(=C/c2ccc3nsnc3c2)[nH]c1=O`, the melting point was 234 to 236 °C. Compound `CC(C)(C)c1ocnc1/C=c1\[nH]c(=O)/c(=C/c2cc3ccccc3s2)[nH]c1=O` registered a melting point of 225 to 227 °C.

Take `CC(C)(C)c1ocnc1/C=c1\[nH]c(=O)/c(=C/c2cccc(Cl)c2)[nH]c1=O` [Compound 2467, tBu-Oxadelta-PLH-3-Cl]: in data set [1] (HT-29, read-out: EC50 (M) Mean), the EC50 was found to be 5.41e-08 M.

Take `CC(C)(C)c1ocnc1/C=c1\[nH]c(=O)/c(=C/c2cccc(Cl)c2Cl)[nH]c1=O` [Compound 2468, tBu-Oxadelta-PLH-2,3-diCl]: the EC50 in data set [1] (HT-29, read-out: EC50 (M) Mean) worked out at 7.92e-08 M. For the compound `COc1cc(/C=c2\[nH]c(=O)/c(=C/c3ncoc3C(C)(C)C)[nH]c2=O)cc(OC)c1` [Compound 2469, tBu-Oxadelta-PLH-3,5-diOMe], the EC50 in data set [1] (setting [2]) came to 8.63e-08 M. Take `CC(C)(C)c1ocnc1/C=c1\[nH]c(=O)/c(=C/c2cc(Cl)cc(Cl)c2)[nH]c1=O` [Compound 2470, tBu-Oxadelta-PLH-3,5-diCl]: the EC50 in data set [1] (setting [2]) stood at 2.78e-07 M. With `CCOc1cccc(/C=c2\[nH]c(=O)/c(=C/c3ncoc3C(C)(C)C)[nH]c2=O)c1` [Compound 2471, tBu-Oxadelta-PLH-m-OEt], the EC50 in data set [1] (setting [2]) was 1.01e-07 M. Consider `Cc1ccccc1/C=c1\[nH]c(=O)/c(=C/c2ncoc2C(C)(C)C)[nH]c1=O` [Compound 2472, tBu-Oxadelta-PLH-o-Me], for which the EC50 in data set [1] (HT-29, read-out: EC50 (M) Mean) was 5.46e-08 M. Turning to `CC(C)(C)c1ocnc1/C=c1\[nH]c(=O)/c(=C/c2cccc(Br)c2)[nH]c1=O` [Compound 2473, tBu-Oxadelta-PLH-3-Br], the EC50 in data set [1] (setting [2]) came to 5.59e-08 M. For `CC(C)(C)c1ocnc1/C=c1\[nH]c(=O)/c(=C/c2ccccn2)[nH]c1=O` [Compound 2474, tBu-Oxadelta-PLH-2-Py], in data set [1] (HT-29, read-out: EC50 (M) Mean), the EC50 was > 6.32e-07 M. For the compound `CC(C)(C)c1ocnc1/C=c1\[nH]c(=O)/c(=C/c2ccccc2F)[nH]c1=O` [Compound 2475, tBu-Oxadelta-PLH-2-F], in data set [1] (setting [2]), the EC50 worked out at 4.66e-07 M.

`CC(C)(C)c1ocnc1/C=c1\[nH]c(=O)/c(=C/c2ccccc2[N+](=O)[O-])[nH]c1=O` [Compound 2476, tBu-Oxadelta-PLH-2-NO2]: the EC50 in data set [1] (setting [2]) came to 1.24e-07 M. On to `CC(C)(C)c1ocnc1/C=c1\[nH]c(=O)/c(=C/c2cccc(OC(F)(F)F)c2)[nH]c1=O` [Compound 2477, tBu-Oxadelta-PLH-m-OCF3], for which, in data set [1] (setting [2]), the EC50 worked out at 4.86e-08 M.

Take `CC(C)(C)c1ocnc1/C=c1\[nH]c(=O)/c(=C/c2ccoc2)[nH]c1=O` [Compound 2478, tBu-Oxadelta-PLH-3-furanyl]: the EC50 in data set [1] (setting [2]) came to 5.37e-08 M. Regarding `CC(C)(C)c1ocnc1/C=c1\[nH]c(=O)/c(=C/c2cccc([N+](=O)[O-])c2)[nH]c1=O` [Compound 2479, tBu-Oxadelta-PLH-m-NO2], the EC50 in data set [1] (HT-29, read-out: EC50 (M) Mean) was found to be 1.08e-07 M. In the case of `Cc1ccsc1/C=c1\[nH]c(=O)/c(=C/c2ncoc2C(C)(C)C)[nH]c1=O` [Compound 2480, tBu-Oxadelta-PLH-3-Me-2-thienyl], in data set [1] (setting [2]), the EC50 was 1.61e-07 M.

As for `CC(C)(C)c1ocnc1/C=c1\[nH]c(=O)/c(=C/c2ccc(Cl)o2)[nH]c1=O` [Compound 2481, tBu-Oxadelta-PLH-5-Cl-2-furyl], in data set [1] (HT-29, read-out: EC50 (M) Mean), the EC50 was determined as 2.56e-07 M. Still for that read-out and setting: next, `C=Cc1cccc(/C=c2\[nH]c(=O)/c(=C/c3ncoc3C(C)(C)C)[nH]c2=O)c1` [Compound 2482, tBu-Oxadelta-PLH-m-vinyl]: 2.65e-08 M. Consider `CC(C)(C)c1ocnc1/C=c1\[nH]c(=O)/c(=C/c2ccc(Br)o2)[nH]c1=O` [Compound 2483, tBu-Oxadelta-PLH-5-Br-2-furyl], for which the EC50 in data set [1] (HT-29, read-out: EC50 (M) Mean) came to 2.48e-07 M.

With `CC(C)(C)c1ocnc1/C=c1\[nH]c(=O)/c(=C/c2cccs2)[nH]c1=O` [Compound 2484, tBu-Oxadelta-PLH-2-thienyl], the EC50 in data set [1] (HT-29, read-out: EC50 (M) Mean) worked out at 1.05e-07 M. For the compound `COc1ccccc1/C=c1\[nH]c(=O)/c(=C/c2ncoc2C(C)(C)C)[nH]c1=O` [Compound 2485, tBu-Oxadelta-PLH-2-OMe], the EC50 in data set [1] (setting [2]) amounted to 2.18e-07 M. Regarding `Cc1cccc(/C=c2\[nH]c(=O)/c(=C/c3ncoc3C(C)(C)C)[nH]c2=O)c1C` [Compound 2486, tBu-Oxadelta-PLH-2,3-diMe], the EC50 in data set [1] (HT-29, read-out: EC50 (M) Mean) amounted to 1.43e-07 M. As to `CC(C)(C)c1ocnc1/C=c1\[nH]c(=O)/c(=C/c2ccsc2)[nH]c1=O` [Compound 2487, tBu-Oxadelta-PLH-3-thienyl], the EC50 in data set [1] (setting [2]) came to 7.93e-08 M. As to `CC(C)(C)c1ocnc1/C=c1\[nH]c(=O)/c(=C/c2cccc(C(F)(F)F)c2)[nH]c1=O` [Compound 2488, tBu-Oxadelta-PLH-m-CF3], the EC50 in data set [1] (HT-29, read-out: EC50 (M) Mean) is 2.49e-07 M.

Take `CC(C)(C)c1ocnc1/C=c1\[nH]c(=O)/c(=C\c2ccccc2)[nH]c1=O` [Compound 2489, (E)-tBu-delta-PLH]: the EC50 in data set [1] (setting [2]) amounted to 1.16e-07 M. Still for that read-out and setting: next, `CC(C)(C)c1ocnc1/C=c1\[nH]c(=O)/c(=C/CCc2ccccc2)[nH]c1=O` [Compound 2496, tBu-oxadelta-PLH-Ph-pr]: 9.48e-07 M; `CCOc1ccc2ccccc2c1/C=c1\[nH]c(=O)/c(=C/c2ncoc2C(C)(C)C)[nH]c1=O` [Compound 2497, tBu-oxadelta-PLH-2-OEt-1-naphth]: 5.23e-06 M. Still for that read-out and setting: the result for `COc1ccc2ccccc2c1/C=c1\[nH]c(=O)/c(=C/c2ncoc2C(C)(C)C)[nH]c1=O` [Compound 2498, tBu-oxadelta-PLH-2-OMe-1-naphth] reads 1.67e-06 M; that for `CC(C)(C)c1ocnc1/C=c1\[nH]c(=O)/c(=C/c2c3ccccc3cc3ccccc23)[nH]c1=O` [Compound 2499, tBu-oxadelta-PLH-9-anth], > 6.32e-06 M. For the compound `CC(C)(C)c1ocnc1/C=c1\[nH]c(=O)/c(=C/c2ccnc3ccccc23)[nH]c1=O` [Compound 2500, tBu-oxadelta-PLH-4-quinoline], in data set [1] (HT-29, read-out: EC50 (M) Mean), the EC50 worked out at 3.99e-07 M. As to `CC(C)(C)c1ocnc1/C=c1\[nH]c(=O)/c(=C/c2cccc(Oc3ccccc3)c2)[nH]c1=O` [Compound 2501, tBu-oxadelta-PLH-3-phenoxy], the EC50 in data set [1] (HT-29, read-out: EC50 (M) Mean) came to 2.39e-08 M. `CC(C)(C)c1ocnc1/C=c1\[nH]c(=O)/c(=C/c2ccc(-c3cccs3)s2)[nH]c1=O` [Compound 2502, tBu-oxadelta-PLH-2,2′-bitio]: the EC50 in data set [1] (setting [2]) is 1.88e-06 M. As for `Cc1oc(-c2ccccc2)cc1/C=c1\[nH]c(=O)/c(=C/c2ncoc2C(C)(C)C)[nH]c1=O` [Compound 2505, tBu-oxadelta-PLH-2-Me-5-Ph-3-furyl], the EC50 in data set [1] (HT-29, read-out: EC50 (M) Mean) is > 6.32e-06 M. Turning to `CC(C)(C)c1ocnc1/C=c1\[nH]c(=O)/c(=C/c2cn(S(=O)(=O)c3ccccc3)c3ccccc23)[nH]c1=O` [Compound 2507, tBu-oxadelta-PLH-1-(Ph-sulfo)-3-indole], the EC50 in data set [1] (setting [2]) is > 6.32e-06 M. On to `CC(C)(C)c1ocnc1/C=c1\[nH]c(=O)/c(=C/c2cc3ccccc3n2S(=O)(=O)c2ccccc2)[nH]c1=O` [Compound 2508, tBu-oxadelta-PLH-1-(Ph-sulfo)-2-indole], for which, in data set [1] (HT-29, read-out: EC50 (M) Mean), the EC50 was > 6.32e-06 M. Still for that read-out and setting: next, `CC(C)(C)c1ocnc1/C=c1\[nH]c(=O)/c(=C/c2ccc3nsnc3c2)[nH]c1=O` [Compound 2509, tBu-oxadelta-PLH-2,1,3-benzothiadiazole]: 4.04e-07 M; `CC(C)(C)c1ocnc1/C=c1\[nH]c(=O)/c(=C/c2cc3ccccc3s2)[nH]c1=O` [Compound 2510, tBu-oxadelta-PLH-2-benzothiophen]: > 2e-05 M; `CC(C)(C)c1ocnc1/C=c1\[nH]c(=O)/c(=C/c2cc(F)cc3c2OCOC3)[nH]c1=O` [Compound 2511, tBu-oxadelta-PLH-7-fluoro-2,4-benzodioxine]: 2.39e-08 M. The same measure, in the same setting: the result for `CC(C)(C)c1ocnc1/C=c1\[nH]c(=O)/c(=C/c2cccc(C(=O)c3ccccc3)c2)[nH]c1=O` [Compound 2512, tBu-oxadelta-PLH-3-benzoyl] reads 3.86e-09 M. Turning to `CC(C)(C)c1ocnc1/C=C1\NC(=O)[C@H](Cc2ccccc2)NC1=O` [Compound 2513, tBu-oxa-PLH], the EC50 in data set [1] (setting [2]) was determined as 9.24e-07 M.
